Data published in patent US11149018B2, “Substituted N-arylethyl-2-aminoquinoline-4-carboxamides and use thereof” (Bayer Aktiengesellschaft, priority 2017, dated 2021).

Biological target: FP receptor (Homo sapiens (Human), UniProt P43088)
Test: In vitro test of inhibition of human FP receptor activity (PGF2α-induced calcium flux in FP-expressing CHEM1 cells)
Assay type: cell-based
Conditions: PGF2α 2 nM, some mean values of multiple determinations
Procedure, shortened: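 FP antagonism in FP-expressing CHEM1 cells loaded with Fluo-8. Compound preincubated 10 min at 37° C, then receptor stimulated with 2 nM (final) PGF2α in calcium-free Tyrode with 2 mM CaCl2.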

FP receptor, sequence (P43088 whole entry): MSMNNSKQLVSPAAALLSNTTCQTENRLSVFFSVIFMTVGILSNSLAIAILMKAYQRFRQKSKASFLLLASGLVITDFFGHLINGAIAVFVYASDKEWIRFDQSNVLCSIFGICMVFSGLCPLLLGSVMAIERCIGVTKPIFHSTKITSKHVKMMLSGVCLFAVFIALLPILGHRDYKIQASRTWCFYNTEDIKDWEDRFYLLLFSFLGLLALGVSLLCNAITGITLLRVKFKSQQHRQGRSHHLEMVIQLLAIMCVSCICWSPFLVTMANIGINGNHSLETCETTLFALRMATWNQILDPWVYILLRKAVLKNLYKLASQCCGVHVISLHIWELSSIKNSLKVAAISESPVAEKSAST

Row | SMILES | IC50 [nM]
1 | [2H]C1([2H])N(c2nc3ccc(Br)cc3c(C(=O)NCC(CCC(=O)O)c3ccccc3C(F)(F)F)c2C)C([2H])([2H])C([2H])([2H])C([2H])([2H])C1([2H])[2H] (single isomer, unassigned; (-)) [Example 269, (−)-5-[({6-Bromo-3-methyl-2-[(^2H10)piperidin-1-yl]quinolin-4-yl}carbonyl)amino]-4-[2-(trifluoromethyl)phenyl]pentanoic acid] | 2.8
2 | [2H]C1([2H])N(c2nc3ccc(Br)cc3c(C(=O)NCC(CCC(=O)O)c3ccccc3C(F)(F)F)c2C)C([2H])([2H])C([2H])([2H])C1([2H])[2H] (single isomer, unassigned; (-)) [Example 277, (−)-5-[({6-Bromo-3-methyl-2-[(^2H8)pyrrolidin-1-yl]quinolin-4-yl}carbonyl)amino]-4-[2-(trifluoromethyl)phenyl]pentanoic acid] | 34
3 | Cc1c(N2CCC(C)C2)nc2ccc(Br)cc2c1C(=O)NCC(CCC(=O)O)c1ccccc1Cl (stereo not drawn) [Example 36, 5-[({6-Bromo-3-methyl-2-[3-methylpyrrolidin-1-yl]quinolin-4-yl}carbonyl)amino]-4-(2-chlorophenyl)pentanoic acid] | 22
4 | COC1CCN(c2nc3ccc(Br)cc3c(C(=O)NCC(CCC(=O)O)c3ccccc3Cl)c2C)C1 (stereo not drawn) [Example 41, 5-[({6-Bromo-2-[3-methoxypyrrolidin-1-yl]-3-methylquinolin-4-yl}carbonyl)amino]-4-(2-chlorophenyl)pentanoic acid] | 430
5 | Cc1c(N2CCCC(C)C2)nc2ccc(Br)cc2c1C(=O)NCC(CCC(=O)O)c1ccccc1Cl (stereo not drawn) [Example 45, 5-[({6-Bromo-3-methyl-2-[3-methylpiperidin-1-yl]quinolin-4-yl}carbonyl)amino]-4-(2-chlorophenyl)pentanoic acid] | 4.7
6 | Cc1c(N2CCCC(C(F)(F)F)C2)nc2ccc(Br)cc2c1C(=O)NCC(CCC(=O)O)c1ccccc1Cl (stereo not drawn) [Example 53, 5-[({6-Bromo-3-methyl-2-[3-(trifluoromethyl)piperidin-1-yl]quinolin-4-yl}carbonyl)amino]-4-(2-chlorophenyl)pentanoic acid] | 5.7
7 | Cc1c(N2CCCC(O)C2)nc2ccc(Br)cc2c1C(=O)NCC(CCC(=O)O)c1ccccc1Cl (stereo not drawn) [Example 55, 5-[({6-Bromo-2-[3-hydroxypiperidin-1-yl]-3-methylquinolin-4-yl}carbonyl)amino]-4-(2-chlorophenyl)pentanoic acid] | 110
8 | Cc1c(N2CCCC(C)(O)C2)nc2ccc(Br)cc2c1C(=O)NCC(CCC(=O)O)c1ccccc1Cl (stereo not drawn) [Example 62, 5-[({6-Bromo-2-[3-hydroxy-3-methylpiperidin-1-yl]-3-methylquinolin-4-yl}carbonyl)amino]-4-(2-chlorophenyl)pentanoic acid] | 110
9 | Cc1c(N2CC(C)CC(C)C2)nc2ccc(Br)cc2c1C(=O)NCC(CCC(=O)O)c1ccccc1Cl (stereo not drawn) [Example 63, 5-[({6-Bromo-2-[3,5-dimethylpiperidin-1-yl]-3-methylquinolin-4-yl}carbonyl)amino]-4-(2-chlorophenyl)pentanoic acid] | 7.3
10 | Cc1c(N2CC[C@H](F)C2)nc2ccc(Br)cc2c1C(=O)NCC(CCC(=O)O)c1ccccc1Cl (stereo partly drawn) [Example 65, 5-[({6-Bromo-2-[(3S)-3-fluoropyrrolidin-1-yl]-3-methylquinolin-4-yl}carbonyl)amino]-4-(2-chlorophenyl)pentanoic acid] | 110
11 | Cc1c(N2CC[C@@H](F)C2)nc2ccc(Br)cc2c1C(=O)NCC(CCC(=O)O)c1ccccc1Cl (stereo partly drawn) [Example 66, 5-[({6-Bromo-2-[(3R)-3-fluoropyrrolidin-1-yl]-3-methylquinolin-4-yl}carbonyl)amino]-4-(2-chlorophenyl)pentanoic acid] | 12
12 | Cc1c(N2CC(F)C(F)C2)nc2ccc(Br)cc2c1C(=O)NCC(CCC(=O)O)c1ccccc1Cl (stereo not drawn) [Example 69, 5-[({6-Bromo-2-[trans-3,4-difluoropyrrolidin-1-yl]-3-methylquinolin-4-yl}carbonyl)amino]-4-(2-chlorophenyl)pentanoic acid] | 42
13 | Cc1c(N2CCC(C)(F)C2)nc2ccc(Br)cc2c1C(=O)NCC(CCC(=O)O)c1ccccc1Cl (stereo not drawn) [Example 71, 5-[({6-Bromo-2-[3-fluoro-3-methylpyrrolidin-1-yl]-3-methylquinolin-4-yl}carbonyl)amino]-4-(2-chlorophenyl)pentanoic acid] | 110
14 | Cc1c(N2CCCC(C#N)C2)nc2ccc(Br)cc2c1C(=O)NCC(CCC(=O)O)c1ccccc1Cl (stereo not drawn) [Example 76, 5-[({6-Bromo-2-[3-cyanopiperidin-1-yl]-3-methylquinolin-4-yl}carbonyl)amino]-4-(2-chlorophenyl)pentanoic acid] | 670
15 | Cc1c(N2CCCC2C)nc2ccc(Br)cc2c1C(=O)NCC(CCC(=O)O)c1ccccc1Cl (stereo not drawn) [Example 79, 5-[({6-Bromo-3-methyl-2-[2-methylpyrrolidin-1-yl]quinolin-4-yl}carbonyl)amino]-4-(2-chlorophenyl)pentanoic acid] | 7.8
16 | Cc1c(N2CCCC(C(N)=O)C2)nc2ccc(Br)cc2c1C(=O)NCC(CCC(=O)O)c1ccccc1Cl (stereo not drawn) [Example 85, 5-[({6-Bromo-2-[3-carbamoylpiperidin-1-yl]-3-methylquinolin-4-yl}carbonyl)amino]-4-(2-chlorophenyl)pentanoic acid] | 590
17 | Cc1c(N2CCOC(C)C2)nc2ccc(Br)cc2c1C(=O)NCC(CCC(=O)O)c1ccccc1Cl (stereo not drawn) [Example 89, 5-[({6-Bromo-3-methyl-2-[2-methylmorpholin-4-yl]quinolin-4-yl}carbonyl)amino]-4-(2-chlorophenyl)pentanoic acid] | 350

Now from value to molecule:

Row | IC50 [nM] | SMILES
18 | 8.4 | Cc1c(N2CCCCC2)nc2ccc(Br)cc2c1C(=O)NCC(CCC(=O)O)c1cc(F)ccc1F (single isomer, unassigned; (-)) [Example 256, (−)-5-({[6-Bromo-3-methyl-2-(piperidin-1-yl)quinolin-4-yl]carbonyl}amino)-4-(2,5-difluorophenyl)pentanoic acid]
19 | 29 | Cc1c(N2CCCC2)nc2ccc(Br)cc2c1C(=O)NCC(CCC(=O)O)c1cc(F)ccc1F (single isomer, unassigned; (-)) [Example 260, (−)-5-({[6-Bromo-3-methyl-2-(pyrrolidin-1-yl)quinolin-4-yl]carbonyl}amino)-4-(2,5-difluorophenyl)pentanoic acid]
20 | 18 | Cc1c(N2CCCC(F)(F)C2)nc2ccc(Br)cc2c1C(=O)NCC(CCC(=O)O)c1cc(F)ccc1F (single isomer, unassigned; (-)) [Example 262, (−)-5-({[6-Bromo-2-(3,3-difluoropiperidin-1-yl)-3-methylquinolin-4-yl]carbonyl}amino)-4-(2,5-difluorophenyl)pentanoic acid]
21 | 13 | Cc1c(N2CCCC(F)(F)C2)nc2ccc(Br)cc2c1C(=O)NCC(CCC(=O)O)c1c(Cl)cccc1Cl (single isomer, unassigned; (-)) [Example 265, (−)-5-({[6-Bromo-2-(3,3-difluoropiperidin-1-yl)-3-methylquinolin-4-yl]carbonyl}amino)-4-(2,6-dichlorophenyl)pentanoic acid]
22 | 2.4 | Cc1c(N2CCCC2)nc2ccc(Br)cc2c1C(=O)NCC(CCC(=O)O)c1ccccc1C(F)(F)F (single isomer, unassigned; (-)) [Example 280, (−)-5-[({6-Bromo-3-methyl-2-[(^2H8)pyrrolidin-1-yl]quinolin-4-yl}carbonyl)amino]-4-[2-(trifluoromethyl)phenyl]pentanoic acid]
23 | 290 | Cc1c(N2CCC(O)C2)nc2ccc(Br)cc2c1C(=O)NCC(CCC(=O)O)c1cc(F)ccc1Cl (stereo not drawn) [Example 16, 5-[({6-Bromo-2-[3-hydroxypyrrolidin-1-yl]-3-methylquinolin-4-yl}carbonyl)amino]-4-(2-chloro-5-fluorophenyl)pentanoic acid]
24 | 4.1 | Cc1c(N2CCCC(C)C2)nc2ccc(Br)cc2c1C(=O)NCC(CCC(=O)O)c1cc(F)ccc1Cl (stereo not drawn) [Example 17, 5-[({6-Bromo-3-methyl-2-[3-methylpiperidin-1-yl]quinolin-4-yl}carbonyl)amino]-4-(2-chloro-5-fluorophenyl)pentanoic acid]
25 | 130 | COC1CCCN(c2nc3ccc(Br)cc3c(C(=O)NCC(CCC(=O)O)c3cc(F)ccc3Cl)c2C)C1 (stereo not drawn) [Example 19, 5-[({6-Bromo-2-[3-methoxypiperidin-1-yl]-3-methylquinolin-4-yl}carbonyl)amino]-4-(2-chloro-5-fluorophenyl)pentanoic acid]
26 | 490 | Cc1c(N2CCOC(CO)C2)nc2ccc(Br)cc2c1C(=O)NCC(CCC(=O)O)c1cc(F)ccc1Cl (stereo not drawn) [Example 20, 5-[({6-Bromo-2-[2-(hydroxymethyl)morpholin-4-yl]-3-methylquinolin-4-yl}carbonyl)amino]-4-(2-chloro-5-fluorophenyl)pentanoic acid]
27 | 230 | Cc1c(N2CCCC(CO)C2)nc2ccc(Br)cc2c1C(=O)NCC(CCC(=O)O)c1cc(F)ccc1Cl (stereo not drawn) [Example 21, 5-[({6-Bromo-2-[3-(hydroxymethyl)piperidin-1-yl]-3-methylquinolin-4-yl}carbonyl)amino]-4-(2-chloro-5-fluorophenyl)pentanoic acid]
28 | 330 | Cc1c(N2CCCC(N)C2)nc2ccc(Br)cc2c1C(=O)NCC(CCC(=O)O)c1ccccc1Cl (stereo not drawn) [Example 56, 5-[({2-[3-Aminopiperidin-1-yl]-6-bromo-3-methylquinolin-4-yl}carbonyl)amino]-4-(2-chlorophenyl)pentanoic acid]
29 | 9.8 | Cc1c(N2CCCC(C(F)F)C2)nc2ccc(Br)cc2c1C(=O)NCC(CCC(=O)O)c1ccccc1Cl (stereo not drawn) [Example 64, 5-[({6-Bromo-2-[3-(difluoromethyl)piperidin-1-yl]-3-methylquinolin-4-yl}carbonyl)amino]-4-(2-chlorophenyl)pentanoic acid]
30 | 4.4 | Cc1c(N2CCCC(F)C2)nc2ccc(Br)cc2c1C(=O)NCC(CCC(=O)O)c1ccccc1Cl (stereo not drawn) [Example 78, 5-[({6-Bromo-2-[3-fluoropiperidin-1-yl]-3-methylquinolin-4-yl}carbonyl)amino]-4-(2-chlorophenyl)pentanoic acid]
